target: T1, active p38 alpha enzyme (Upstate Biotechnology) (Homo sapiens, UniProt Q16539); assay: p38α biochemical assay (ATP turnover, luminescent detection, Cambrex PKlight); settings: p38α biochemical assay, Table 1 Biological Activity
T1 construct: purchased Upstate Biotechnology
Procedure, shortened: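 Luminescent PKlight readout of total ATP consumption follows a 2 h, 30C kinase reaction. Enzyme and MapkapK2 substrate run with 1.4 uM ATP (final) in buffer containing Mg2+, Ca2+, chelators, glycerol, reducing agent and BSA; test compounds added by pintool from DMSO.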

T1 sequence (Q16539 whole entry): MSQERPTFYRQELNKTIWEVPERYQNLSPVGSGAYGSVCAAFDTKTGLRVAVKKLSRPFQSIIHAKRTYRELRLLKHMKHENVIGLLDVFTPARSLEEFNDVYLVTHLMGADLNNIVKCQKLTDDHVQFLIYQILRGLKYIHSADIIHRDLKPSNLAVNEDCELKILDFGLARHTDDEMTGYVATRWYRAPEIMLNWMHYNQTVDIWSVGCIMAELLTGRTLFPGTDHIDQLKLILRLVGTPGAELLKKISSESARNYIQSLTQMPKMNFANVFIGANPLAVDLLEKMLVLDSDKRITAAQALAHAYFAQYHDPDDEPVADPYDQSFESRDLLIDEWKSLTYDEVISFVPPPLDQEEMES

Row | SMILES | IC50
1 | CC(CC(=O)N1CCN(Cc2nc(-c3ccc(F)cc3)c(-c3nc(C(=O)NC(C)C)cs3)o2)CC1)CC(C)(C)C (centres unmarked) [Example 399] | ≤ 1000 nM
2 | CC(C)NC(=O)c1csc(-c2oc(CN3CCN(C(=O)C4CCc5ccccc54)CC3)nc2-c2ccc(F)cc2)n1 (centres unmarked) [Example 401] | ≤ 1000 nM
3 | CC(C)NC(=O)c1csc(-c2oc(CN3CCN(C(=O)C(Cl)(Cl)Cl)CC3)nc2-c2ccc(F)cc2)n1 [Example 402] | ≤ 1000 nM
4 | CC(=O)c1ccc(C(=O)N2CCN(Cc3nc(-c4ccc(F)cc4)c(-c4nc(C(=O)NC(C)C)cs4)o3)CC2)cc1 [Example 404] | > 1000 nM
5 | CC(C)NC(=O)c1csc(-c2oc(CN3CCN(C(=O)/C=C/c4cccc(O)c4)CC3)nc2-c2ccc(F)cc2)n1 [Example 405] | > 1000 nM
6 | CC(=O)c1cccc(C(=O)N2CCN(Cc3nc(-c4ccc(F)cc4)c(-c4nc(C(=O)NC(C)C)cs4)o3)CC2)c1 [Example 406] | > 1000 nM
7 | CCC(C(=O)N1CCN(Cc2nc(-c3ccc(F)cc3)c(-c3nc(C(=O)NC(C)C)cs3)o2)CC1)c1ccccc1 (centres unmarked) [Example 411] | > 1000 nM
8 | Cc1cc(C)c(C(=O)N2CCN(Cc3nc(-c4ccc(F)cc4)c(-c4nc(C(=O)NC(C)C)cs4)o3)CC2)c(C)c1 [Example 412] | ≤ 1000 nM
9 | CC(C)NC(=O)c1csc(-c2oc(CN3CCN(C(=O)/C=C/c4ccccc4F)CC3)nc2-c2ccc(F)cc2)n1 [Example 415] | > 1000 nM
10 | CC(C)NC(=O)c1csc(-c2oc(CN3CCN(C(=O)CCc4ccccc4O)CC3)nc2-c2ccc(F)cc2)n1 [Example 418] | ≤ 1000 nM
11 | CC(C)NC(=O)c1csc(-c2oc(CN3CCN(C(=O)C(C)c4ccc(O)cc4)CC3)nc2-c2ccc(F)cc2)n1 (centres unmarked) [Example 420] | > 1000 nM
12 | CC(C)NC(=O)c1csc(-c2oc(CN3CCN(C(=O)c4ccccc4[N+](=O)[O-])CC3)nc2-c2ccc(F)cc2)n1 [Example 421] | > 1000 nM
13 | COc1cccc(O)c1C(=O)N1CCN(Cc2nc(-c3ccc(F)cc3)c(-c3nc(C(=O)NC(C)C)cs3)o2)CC1 [Example 423] | ≤ 1000 nM
14 | COc1ccc(O)c(C(=O)N2CCN(Cc3nc(-c4ccc(F)cc4)c(-c4nc(C(=O)NC(C)C)cs4)o3)CC2)c1 [Example 424] | ≤ 1000 nM
15 | COc1ccc(C(=O)N2CCN(Cc3nc(-c4ccc(F)cc4)c(-c4nc(C(=O)NC(C)C)cs4)o3)CC2)c(O)c1 [Example 425] | ≤ 1000 nM
16 | CC(C)NC(=O)c1csc(-c2oc(CN3CCN(C(=O)c4cc(O)c(O)c(O)c4)CC3)nc2-c2ccc(F)cc2)n1 [Example 427] | ≤ 1000 nM
17 | CC(C)NC(=O)c1csc(-c2oc(CN3CCN(C(=O)Cc4ccc(O)c(F)c4)CC3)nc2-c2ccc(F)cc2)n1 [Example 428] | ≤ 1000 nM
18 | CC(C)NC(=O)c1csc(-c2oc(CN3CCN(C(=O)c4cccc5ccccc45)CC3)nc2-c2ccc(F)cc2)n1 [Example 431] | ≤ 1000 nM
19 | CC(C)NC(=O)c1csc(-c2oc(CN3CCN(C(=O)c4cc(Cl)ccc4O)CC3)nc2-c2ccc(F)cc2)n1 [Example 433] | ≤ 1000 nM
20 | CC(C)NC(=O)c1csc(-c2oc(CN3CCN(C(=O)c4ccc5ncccc5c4)CC3)nc2-c2ccc(F)cc2)n1 [Example 434] | ≤ 1000 nM
21 | CC(C)NC(=O)c1csc(-c2oc(CN3CCN(C(=O)c4cnc(O)c(Cl)c4)CC3)nc2-c2ccc(F)cc2)n1 [Example 435] | ≤ 1000 nM
22 | CC(C)NC(=O)c1csc(-c2oc(CN3CCN(C(=O)c4ccc(F)cc4Cl)CC3)nc2-c2ccc(F)cc2)n1 [Example 436] | > 1000 nM
23 | CC(C)NC(=O)c1csc(-c2oc(CN3CCN(C(=O)CNC(=O)OC(C)(C)C)CC3)nc2-c2ccc(F)cc2)n1 [Example 438] | > 1000 nM
24 | Cc1c(C(=O)N2CCN(Cc3nc(-c4ccc(F)cc4)c(-c4nc(C(=O)NC(C)C)cs4)o3)CC2)oc2ccccc12 [Example 439] | > 1000 nM

Now from value to compound:

Row | IC50 | SMILES
25 | > 1000 nM | CC(C)NC(=O)c1csc(-c2oc(CN3CCN(C(=O)c4cccc(F)c4F)CC3)nc2-c2ccc(F)cc2)n1 [Example 395]
26 | > 1000 nM | CC(C)NC(=O)c1csc(-c2oc(CN3CCN(C(=O)c4ccc(F)cc4F)CC3)nc2-c2ccc(F)cc2)n1 [Example 396]
27 | > 1000 nM | CC(C)NC(=O)c1csc(-c2oc(CN3CCN(C(=O)c4cc(F)cc(F)c4)CC3)nc2-c2ccc(F)cc2)n1 [Example 397]
28 | > 1000 nM | CC(C)NC(=O)c1csc(-c2oc(CN3CCN(C(=O)c4ccc(F)c(F)c4)CC3)nc2-c2ccc(F)cc2)n1 [Example 398]
29 | > 1000 nM | CC(C)NC(=O)c1csc(-c2oc(CN3CCN(C(=O)c4cc5ccccc5o4)CC3)nc2-c2ccc(F)cc2)n1 [Example 400]
30 | ≤ 1000 nM | CC(C)NC(=O)c1csc(-c2oc(CN3CCN(C(=O)/C=C/c4ccccc4O)CC3)nc2-c2ccc(F)cc2)n1 [Example 403]
31 | ≤ 1000 nM | CC(=O)c1ccccc1C(=O)N1CCN(Cc2nc(-c3ccc(F)cc3)c(-c3nc(C(=O)NC(C)C)cs3)o2)CC1 [Example 407]
32 | > 1000 nM | CC(C)NC(=O)c1csc(-c2oc(CN3CCN(C(=O)c4ccc(C(C)C)cc4)CC3)nc2-c2ccc(F)cc2)n1 [Example 408]
33 | ≤ 1000 nM | Cc1ccccc1CCC(=O)N1CCN(Cc2nc(-c3ccc(F)cc3)c(-c3nc(C(=O)NC(C)C)cs3)o2)CC1 [Example 409]
34 | ≤ 1000 nM | Cc1cccc(CCC(=O)N2CCN(Cc3nc(-c4ccc(F)cc4)c(-c4nc(C(=O)NC(C)C)cs4)o3)CC2)c1 [Example 410]
35 | > 1000 nM | CCCc1ccc(C(=O)N2CCN(Cc3nc(-c4ccc(F)cc4)c(-c4nc(C(=O)NC(C)C)cs4)o3)CC2)cc1 [Example 413]
36 | > 1000 nM | CC(C)NC(=O)c1csc(-c2oc(CN3CCN(C(=O)c4ccc5c(c4)OCO5)CC3)nc2-c2ccc(F)cc2)n1 [Example 414]
37 | > 1000 nM | CCOc1ccccc1C(=O)N1CCN(Cc2nc(-c3ccc(F)cc3)c(-c3nc(C(=O)NC(C)C)cs3)o2)CC1 [Example 416]
38 | > 1000 nM | Cc1ccccc1OCC(=O)N1CCN(Cc2nc(-c3ccc(F)cc3)c(-c3nc(C(=O)NC(C)C)cs3)o2)CC1 [Example 417]
39 | ≤ 1000 nM | COc1ccccc1CC(=O)N1CCN(Cc2nc(-c3ccc(F)cc3)c(-c3nc(C(=O)NC(C)C)cs3)o2)CC1 [Example 419]
40 | > 1000 nM | CC(C)NC(=O)c1csc(-c2oc(CN3CCN(C(=O)c4cccc([N+](=O)[O-])c4)CC3)nc2-c2ccc(F)cc2)n1 [Example 422]
41 | ≤ 1000 nM | COc1ccc(C(=O)N2CCN(Cc3nc(-c4ccc(F)cc4)c(-c4nc(C(=O)NC(C)C)cs4)o3)CC2)cc1O [Example 426]
42 | > 1000 nM | Cc1cc(C(=O)N2CCN(Cc3nc(-c4ccc(F)cc4)c(-c4nc(C(=O)NC(C)C)cs4)o3)CC2)cc(Cl)n1 [Example 429]
43 | > 1000 nM | CC(C)NC(=O)c1csc(-c2oc(CN3CCN(C(=O)Cc4c(F)cccc4F)CC3)nc2-c2ccc(F)cc2)n1 [Example 430]
44 | ≤ 1000 nM | CC(C)NC(=O)c1csc(-c2oc(CN3CCN(C(=O)c4ccc(Cl)cc4O)CC3)nc2-c2ccc(F)cc2)n1 [Example 432]
45 | > 1000 nM | CC(C)NC(=O)c1csc(-c2oc(CN3CCN(C(=O)c4c(F)cccc4Cl)CC3)nc2-c2ccc(F)cc2)n1 [Example 437]
46 | ≤ 1000 nM | CC(C)NC(=O)c1csc(-c2oc(CN3CCN(C(=O)CC4Cc5ccccc5C4)CC3)nc2-c2ccc(F)cc2)n1 [Example 440]
47 | ≤ 1000 nM | CC(C)NC(=O)c1csc(-c2oc(CN3CCN(C(=O)C4CCc5ccccc5C4)CC3)nc2-c2ccc(F)cc2)n1 (centres unmarked) [Example 441]
